The values below come from ChEMBL document CHEMBL1141820, “Cytotoxic polyacetylenes from the marine sponge Petrosia sp” (1999).

Holding throughout (assay type): functional
Holding throughout (conditions): read-out: ED50 (the source's name)

In one assay the test system is A549. The experiment in a line: Cytotoxicity against human A549 cells.
In the next assay the test system is SK-OV-3. In words: Cytotoxicity against human SKOV3 cells.
Another assay relates to SK-MEL-2. The experiment in a line: Cytotoxicity against human SK-MEL-2 cells.
The next assay relates to XF498. In words: Cytotoxicity against human XF498 cells.
The test system of another assay is HCT-15. The experiment in a line: Cytotoxicity against human HCT-15 cells.

Converted amounts (≈) assume the structure as drawn. Some results are limits rather than exact numbers.

As to `C#CC(O)/C=C/CCCCCCC#CC/C=C/CCCCCCCCC/C=C/C(O)C#C` (stereo not given), the EC50 with A549 was found to be 1.4 µg/mL (≈ 3.21 µM); with SK-OV-3 it was 0.1 µg/mL (≈ 0.229 µM); in the assay with SK-MEL-2 it was 0.2 µg/mL (≈ 0.458 µM); in the assay on XF498, 1.2 µg/mL (≈ 2.75 µM); in the assay on HCT-15, 1.2 µg/mL (≈ 2.75 µM).

In the case of `C#C/C=C\CCCCCCCCCCCCCC/C=C/CCCC/C=C/CCCCC#C[C@@H](O)C#CCCCCCC/C=C/[C@H](O)C#C`, the EC50 in the assay on A549 is 1.1 µg/mL (≈ 1.68 µM); in the assay with SK-OV-3, 0.6 µg/mL (≈ 0.916 µM); with SK-MEL-2, 1.1 µg/mL (≈ 1.68 µM); in the assay on XF498, 1.7 µg/mL (≈ 2.6 µM); in the assay with HCT-15, 1 µg/mL (≈ 1.53 µM).

Take `C#C[C@@H](O)/C=C/CCCCCCC#CC/C=C/C/C=C/CCCCCCCC[C@H](O)C#C` [DIDEOXYPETROSYNOL F]: the EC50 in the assay on A549, with SK-OV-3, in the assay on SK-MEL-2, in the assay with XF498 and with HCT-15 was more than 3 µg/mL each time.

Consider `C#C/C=C/[C@@H](O)CCCCCCCCC/C=C/CC#CCCCCCC/C=C/[C@H](O)C#C` [DIDEOXYPETROSYNOL E], for which the EC50 in the assay on A549 is 1.3 µg/mL (≈ 2.98 µM); with SK-OV-3, 0.1 µg/mL (≈ 0.229 µM); with SK-MEL-2 it was 0.1 µg/mL (≈ 0.229 µM); with XF498, 0.6 µg/mL (≈ 1.37 µM); with HCT-15, 0.8 µg/mL (≈ 1.83 µM).

With `C#C/C=C\CCCCCCCCCCCCCC/C=C/CCCC/C=C/CC/C=C/C#C[C@@H](O)C#CCCCCCC/C=C/[C@H](O)C#C` [PETROTETRAYNDIOL A], the EC50 worked out at 1.6 µg/mL (≈ 2.45 µM) in the assay on A549; 0.5 µg/mL (≈ 0.766 µM) in the assay with SK-OV-3; 0.9 µg/mL (≈ 1.38 µM) in the assay on SK-MEL-2; 1.7 µg/mL (≈ 2.6 µM) in the assay on XF498; 1 µg/mL (≈ 1.53 µM) with HCT-15.

In the case of `C#C/C=C\CCCCCCCCCCCCCC/C=C/CCCC/C=C/CCCCC#C[C@@H](O)C#CCCCCCCCC[C@H](O)C#C` [PETROTETRAYNDIOL B], the EC50 with A549 is 1.7 µg/mL (≈ 2.59 µM); in the assay on SK-OV-3 it was 2.2 µg/mL (≈ 3.35 µM); in the assay with SK-MEL-2, 1.9 µg/mL (≈ 2.89 µM); in the assay with XF498, more than 3 µg/mL; in the assay on HCT-15 it was 3.7 µg/mL (≈ 5.63 µM).

For `COc1cccc2c1C(=O)c1c(O)c3c(c(O)c1C2=O)C[C@@](O)(C(=O)CO)C[C@@H]3O[C@H]1C[C@H](N)[C@H](O)[C@H](C)O1` [DOXORUBICIN], the EC50 was 0.1 µg/mL (≈ 0.184 µM) in the assay with A549; 0.2 µg/mL (≈ 0.368 µM) in the assay with SK-OV-3; 0.2 µg/mL (≈ 0.368 µM) with SK-MEL-2; 0.2 µg/mL (≈ 0.368 µM) in the assay with XF498; 0.9 µg/mL (≈ 1.66 µM) with HCT-15.
